# Data as given in US8110569B2, “Enantiomerically pure S-etifoxine, pharmaceutical compositions thereof and methods of their use” (The Regents of the University of California, priority 2006, dated 2012).
# Columns and labels:
# [1] = tested on: α1β1-3γ2L GABAA receptors; experiment: Modulation of GABA-evoked currents in Xenopus oocytes (2-electrode voltage clamp), GABA subunit selectivity; assay type: cell-based; conditions: human GABAA receptor subunits expressed in Xenopus oocytes; for GABA subunit selectivity: GABA EC10 control currents, FIGS. 4A and 4B
# Protocol: GABA subunit selectivity of etifoxine enantiomers was measured based on their ability to modulate the GABA-evoked currents in Xenopus oocytes.
# Receptor mRNA preparation: cDNA clones encoding human GABAA receptor subunits were obtained from commercial sources. mRNA was prepared using conventional techniques with commercially-available “mMessage machine” kits (Ambion). Individual mRNAs (˜1 μg/μL) were stored in aliquots at −80° C.
# mRNA injections into Xenopus oocytes: Preparation and micro-injection of oocytes were performed as reported in detail previously (see, Whittemore et al., 1996, Mol Pharmacol 50: 1364-1375). Individual oocytes were injected with 5-50 ng of mRNA at 5:1:1 (GABA). For example, individual oocytes were injected with a 5:1:1 mixture of α1, β1-3, and γ2L (˜5-50 ng of each subunit per cell) to produce expression of α1β1-3γ2L GABAA receptors. Following injections, oocytes were maintained at 16-17° C. in Barth's medium containing (in mM): NaCl, 88; KCl, 1; CaCl2, 0.41; Ca(NO3)2, 0.33; MgSO4, 0.82; NaHCO3, 2.4; HEPES 5; pH=7.4, with 0.1 mg/ml gentamycin sulfate.
# Oocyte Electrophysiological recordings: Individual oocytes were placed on a nylon mesh in a 35 mm dish, perfused with frog Ringer (see, Whittemore et al., supra), and voltage clamped at a holding potential of −70 mV. In some cases, simple voltage steps were made to test voltage-dependence. Oocytes were perfused with fresh Ringer or exposed to GABA ±modulators using a custom-made gravity-driven perfusion system consisting of a linear array of 3 capillary tubes. The concentration of GABA used to evoke control currents was adjusted for each individual oocyte to be ˜10% of the maximal current (EC10) measured in that cell. The concentration of GABA required to evoke EC10 ‘control’ currents varied between ˜2 and 12 μM. […] Data are expressed as % of control currents (% modulation=100*[(modulated current/GABA control current)−1].
# [2] = tested on: mouse formalin pain model; experiment: Mouse formalin test, late phase licking (analgesic effect); assay type: in vivo; conditions: 3 mg/kg i.p., 30 minutes prior to formalin; male NSA mice; FIG. 5
# Protocol: The analgesic effect of test compounds was assessed in a mouse formalin pain model (Hole et al., 1993, Pain 53:247-254). Male NSA mice weighing between 27 and 30 g were housed with access to food and water ad libitum until the test date. On the day of testing, they were given a period of 1 h to adjust to the test chamber. Test compounds or vehicle control (75% polyethylene glycol in 5% dextrose+water) were administered i.p. at 30 minutes prior to the administration of formalin. A solution of 20 μl of 2.5% formalin was then injected subcutaneously into the dorsal side of the hind paw of the test mouse. Immediately following formalin injection, the mice were observed over the next 50 min and the time spent licking the injected hind paw was recorded. The observation time was broken down into 5 minute “bins”, with 10 bins in total. The first 5-min bin is the early phase, considered to be reflective of acute pain. Bins three to ten make up the late phase, considered a measure of chronic inflammatory pain. The results for the late phase are expressed as the averaged mean time (in seconds) that mice spent licking in a 5-min period.
# Dose-response relationship was conducted in the range of 3 to 60 mg/kg. Statistical differences in response were determined by one-way analysis of variance with the Dunnett's post-hoc test by using the Prism3 statistical software (GraphPad, Inc., San Diego, Calif.).
# [3] = In vivo racemization study, plasma enantiomers by chiral LC-MS/MS; parameters: species or system mouse; conditions: 30 mg/kg perorally, NSA mice, plasma 30 minutes post dose; FIG. 6A
# Protocol: Pure S-etifoxine was administered at 30 mg/kg, perorally, to NSA mice. The desired enantiomer was dissolved in PEG at a concentration of 15 mg/mL and a dose of 2 mL/kg was administered perorally to overnight fasted mice. Plasma concentration of etifoxine enantiomers was determined by LC-MS/MS analysis.
# A mixture of 100 μL plasma and 200 μL water in a 6-mL plastic culture tube was vortexed briefly, for about 10 seconds. To this was added 1.5 mL methyl tert-butyl ether and 1.5 mL hexane and vortexed briefly for about 10 seconds. The mixture was centrifuged for about 10 minutes and frozen at −80° C. for 10 minutes. The organic layer was collected and dried under nitrogen at 37° C. The solid was resuspended in 250 μL methanol, vortexed and transferred to 96-well plate.
# The samples were analyzed by LC-MS/MS on a […] CHIRALCEL® OD (lot #OD00CE-FJ033) column at room temperature. A mixture of 75% hexane, 25% isopropyl alcohol and 0.05% […] was used as an isocratic mobile phase. The flow rate was set at 1 mL/min at room temperature. Racemic etifoxine spiked into plasma was used as a reference standard. FIGS. 6A and 6B provide representative chromatograms of extracted plasma sample (pure S-etifoxine, dosed at 30 mg/kg/po at 30 minutes post dose) and racemic standard spiked into plasma (100 ng/mL), respectively. […]
Structure (SMILES),GABA subunit selectivity [1],selectivity between β2 and β1 subunit ([1]; FIG. 4B),activity in the formalin test (late phase licking) [2],racemization in vivo (R-etifoxine in plasma) [3]
CCN=C1Nc2ccc(Cl)cc2[C@@](C)(c2ccccc2)O1 [R-etifoxine],little or no GABA subunit selectivity,,,
CCNC1=Nc2ccc(Cl)cc2C(C)(c2ccccc2)O1 (centres unmarked) [S-etifoxine],shows selectivity for GABA receptor comprising β subunit,more selective for β2 subunit than β1 subunit,active,little or no racemization in vivo
